For this assay, the target named is APP (amyloid precursor protein) (Homo sapiens, UniProt P05067). The assay can be described thus: SPR. The assay is classed as binding.

Each structure is given as a SMILES string.

APP (amyloid precursor protein), sequence (P05067 230-624 isoform P05067-4): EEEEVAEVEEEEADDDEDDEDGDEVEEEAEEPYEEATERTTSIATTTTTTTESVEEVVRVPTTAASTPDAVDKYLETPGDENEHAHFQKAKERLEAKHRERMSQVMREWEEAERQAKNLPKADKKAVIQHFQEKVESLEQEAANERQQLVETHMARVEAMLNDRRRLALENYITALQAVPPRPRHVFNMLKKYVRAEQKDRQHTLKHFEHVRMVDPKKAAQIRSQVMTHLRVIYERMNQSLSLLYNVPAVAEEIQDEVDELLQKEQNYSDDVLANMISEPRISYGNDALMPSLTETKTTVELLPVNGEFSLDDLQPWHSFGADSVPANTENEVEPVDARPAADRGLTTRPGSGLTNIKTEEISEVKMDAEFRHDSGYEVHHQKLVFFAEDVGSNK

Consider `CN1[C@@H]2CC[C@H]1C[C@@H](OC(=O)c1c[nH]c3ccccc13)C2` [tropisetron], for which the Kd came out at 900 nM.

For the origin of these results see publication PMC4001856 (Brain research, 2013).
